Calls of active or inactive are those of the source.
Experiments:
SN12C = assay: Growth inhibition of human SN12C cells at 10 uM after 48 hrs by sulforhodamine B assay; format: functional; settings: read-out: GI
SF-268 = assay: Growth inhibition of human SF268 cells at 10 uM after 48 hrs by sulforhodamine B assay; format: functional
HOP-62 = assay: Growth inhibition of human HOP62 cells at 10 uM after 48 hrs by sulforhodamine B assay; format: functional
HCT-15 = assay: Growth inhibition of human HCT15 cells at 10 uM after 48 hrs by sulforhodamine B assay; format: functional
HT-29 = assay: Growth inhibition of human HT-29 cells at 10 uM after 48 hrs by sulforhodamine B assay; format: functional
SNB-19 = assay: Growth inhibition of human SNB19 cells at 10 uM after 48 hrs by sulforhodamine B assay; format: functional; settings: SNB-19, 48 h, read-out: GI
SF-539 = assay: Growth inhibition of human SF539 cells at 10 uM after 48 hrs by sulforhodamine B assay; format: functional
HL-60(TB) = assay: Growth inhibition of human HL-60(TB) cells at 10 uM after 48 hrs by sulforhodamine B assay; format: functional; settings: HL-60, 48 h, read-out: GI
SF-295 = assay: Growth inhibition of human SF295 cells at 10 uM after 48 hrs by sulforhodamine B assay; format: functional
CCRF-CEM = assay: Growth inhibition of human CCRF-CEM cells at 10 uM after 48 hrs by sulforhodamine B assay; format: functional; settings: read-out: GI
MDA-MB-435 = assay: Growth inhibition of human MDA-MB-435 cells at 10 uM after 48 hrs by sulforhodamine B assay; format: functional
SK-MEL-5 = assay: Growth inhibition of human SK-MEL-5 cells at 10 uM after 48 hrs by sulforhodamine B assay; format: functional; settings: SK-MEL-5, 48 h, read-out: GI
U-251 = assay: Growth inhibition of human U251 cells at 10 uM after 48 hrs by sulforhodamine B assay; format: functional; settings: U-251, 48 h, read-out: GI
ACHN = assay: Growth inhibition of human ACHN cells at 10 uM after 48 hrs by sulforhodamine B assay; format: functional
UACC-257 = assay: Growth inhibition of human UACC257 cells at 10 uM after 48 hrs by sulforhodamine B assay; format: functional
MDA-MB-468 = assay: Growth inhibition of human MDA-MB-468 cells at 10 uM after 48 hrs by sulforhodamine B assay; format: functional
786-0 = assay: Growth inhibition of human 786-0 cells at 10 uM after 48 hrs by sulforhodamine B assay; format: functional
RPMI-8226 = assay: Growth inhibition of human RPMI8226 cells at 10 uM after 48 hrs by sulforhodamine B assay; format: functional
EKVX = assay: Growth inhibition of human EKVX cells at 10 uM after 48 hrs by sulforhodamine B assay; format: functional
SNB-75 = assay: Growth inhibition of human SNB75 cells at 10 uM after 48 hrs by sulforhodamine B assay; format: functional; settings: SNB-75, 48 h, read-out: GI
SW-620 = assay: Growth inhibition of human SW620 cells at 10 uM after 48 hrs by sulforhodamine B assay; format: functional; settings: SW-620, 48 h, read-out: GI
SK-MEL-2 = assay: Growth inhibition of human SK-MEL-2 cells at 10 uM after 48 hrs by sulforhodamine B assay; format: functional
KM12 = assay: Growth inhibition of human KM12 cells at 10 uM after 48 hrs by sulforhodamine B assay; format: functional
M14 = assay: Growth inhibition of human M14 cells at 10 uM after 48 hrs by sulforhodamine B assay; format: functional; settings: M14, 48 h, read-out: GI
Carbonic anhydrase 9 = Carbonic anhydrase 9 (Homo sapiens, UniProt Q16790); assay: Inhibition of human carbonic anhydrase 9 after 15 mins by stopped flow CO2 hydration assay
NCI-H522 = assay: Growth inhibition of human NCI-H522 cells at 10 uM after 48 hrs by sulforhodamine B assay; format: functional; settings: NCI-H522, 48 h, read-out: GI
MOLT-4 = assay: Growth inhibition of human MOLT4 cells at 10 uM after 48 hrs by sulforhodamine B assay; format: functional; settings: MOLT-4, 48 h, read-out: GI
RXF 393 = assay: Growth inhibition of human RXF393 cells at 10 uM after 48 hrs by sulforhodamine B assay; format: functional
SK-OV-3 = assay: Growth inhibition of human SKOV3 cells at 10 uM after 48 hrs by sulforhodamine B assay; format: functional
OVCAR-5 = assay: Growth inhibition of human OVCAR5 cells at 10 uM after 48 hrs by sulforhodamine B assay; format: functional
HOP-92 = assay: Growth inhibition of human HOP92 cells at 10 uM after 48 hrs by sulforhodamine B assay; format: functional; settings: HOP-92, 48 h, read-out: GI
SR = assay: Growth inhibition of human SR cells at 10 uM after 48 hrs by sulforhodamine B assay; format: functional; settings: read-out: GI
T47D = assay: Growth inhibition of human T47D cells at 10 uM after 48 hrs by sulforhodamine B assay; format: functional
NCI-H460 = assay: Growth inhibition of human NCI-H460 cells at 10 uM after 48 hrs by sulforhodamine B assay; format: functional
BT-549 = assay: Growth inhibition of human BT549 cells at 10 uM after 48 hrs by sulforhodamine B assay; format: functional; settings: BT-549, 48 h, read-out: GI
DU-145 = assay: Growth inhibition of human DU145 cells at 10 uM after 48 hrs by sulforhodamine B assay; format: functional
HCT-116 = assay: Growth inhibition of human HCT116 cells at 10 uM after 48 hrs by sulforhodamine B assay; format: functional
TK-10 = assay: Growth inhibition of human TK10 cells at 10 uM after 48 hrs by sulforhodamine B assay; format: functional
CAKI-1 = assay: Growth inhibition of human CAKI-1 cells at 10 uM after 48 hrs by sulforhodamine B assay; format: functional
OVCAR-3 = assay: Growth inhibition of human OVCAR3 cells at 10 uM after 48 hrs by sulforhodamine B assay; format: functional
UACC-62 = assay: Growth inhibition of human UACC62 cells at 10 uM after 48 hrs by sulforhodamine B assay; format: functional; settings: UACC-62, 48 h, read-out: GI
[1] = Growth inhibition of human Hs 578T cells at 10 uM after 48 hrs by sulforhodamine B assay; format: functional; settings: read-out: GI
SK-MEL-28 = assay: Growth inhibition of human SK-MEL-28 cells at 10 uM after 48 hrs by sulforhodamine B assay; format: functional, cell-based
MCF7 = assay: Growth inhibition of human MCF7 cells at 10 uM after 48 hrs by sulforhodamine B assay; format: functional; settings: MCF7, 48 h, read-out: GI
COLO 205 = assay: Growth inhibition of human COLO205 cells at 10 uM after 48 hrs by sulforhodamine B assay; format: functional
OVCAR-8 = assay: Growth inhibition of human OVCAR8 cells at 10 uM after 48 hrs by sulforhodamine B assay; format: functional
A549 = assay: Growth inhibition of human A549/ATCC cells at 10 uM after 48 hrs by sulforhodamine B assay; format: functional
NCI-H226 = assay: Growth inhibition of human NCI-H226 cells at 10 uM after 48 hrs by sulforhodamine B assay; format: functional
MDA-MB-231 = assay: Growth inhibition of human MDA-MB-231 cells at 10 uM after 48 hrs by sulforhodamine B assay; format: functional

Cc1nn(-c2ccncc2S(N)(=O)=O)c(C)c1C
16%: inhibition of growth at 10 µM (SR)
25%: inhibition of growth at 10 µM (HOP-92)
3%: inhibition of growth at 10 µM (SK-MEL-5) | inhibition of growth at 10 µM (NCI-H522) | inhibition of growth at 10 µM (UACC-62)
6%: inhibition of growth at 10 µM (CCRF-CEM) | inhibition of growth at 10 µM (SNB-75)
2%: inhibition of growth at 10 µM (M14)
23.1 nM: Ki (Carbonic anhydrase 9)
20%: inhibition of growth at 10 µM [1]
9%: inhibition of growth at 10 µM (SN12C) | inhibition of growth at 10 µM (HL-60(TB))
12%: inhibition of growth at 10 µM (SW-620)
4%: inhibition of growth at 10 µM (BT-549) | inhibition of growth at 10 µM (MCF7)
5%: inhibition of growth at 10 µM (MOLT-4)
inactive: growth inhibition (GI) (SF-268) | growth inhibition (GI) (HOP-62) | growth inhibition (GI) (HCT-15) | growth inhibition (GI) (HT-29) | growth inhibition (GI) (SF-539) | growth inhibition (GI) (SF-295) | growth inhibition (GI) (MDA-MB-435) | growth inhibition (GI) (ACHN) | growth inhibition (GI) (UACC-257) | growth inhibition (GI) (MDA-MB-468) | growth inhibition (GI) (786-0) | growth inhibition (GI) (RPMI-8226) | growth inhibition (GI) (EKVX) | growth inhibition (GI) (SK-MEL-2) | growth inhibition (GI) (KM12) | growth inhibition (GI) (RXF 393) | growth inhibition (GI) (SK-OV-3) | growth inhibition (GI) (OVCAR-5) | growth inhibition (GI) (T47D) | growth inhibition (GI) (NCI-H460) | growth inhibition (GI) (DU-145) | growth inhibition (GI) (HCT-116) | growth inhibition (GI) (TK-10) | growth inhibition (GI) (CAKI-1) | growth inhibition (GI) (OVCAR-3) | growth inhibition (GI) (SK-MEL-28) | growth inhibition (GI) (COLO 205) | growth inhibition (GI) (OVCAR-8) | growth inhibition (GI) (A549) | growth inhibition (GI) (NCI-H226) | growth inhibition (GI) (MDA-MB-231)
1%: inhibition of growth at 10 µM (SNB-19) | inhibition of growth at 10 µM (U-251)

From ChEMBL document CHEMBL2434896, “Carbonic anhydrase inhibitors. Synthesis of heterocyclic 4-substituted pyridine-3-sulfonamide derivatives and their inhibition of the human cytosolic isozymes I and II and transmembrane tumor-associated isozymes IX and XII” (Eur J Med Chem, 2013)
